# How the values were obtained:
# [1] = test system: ERSE-FLuc reporter (ATF6 arm of the UPR); experiment: ERSE-FLuc reporter, 1536-well confirmation screen in HEK293T-Rex cells; type: cell-based; settings: % Tg (500 nM) activation, triplicate confirmation screen at 6.8 μM, 18 h
# Description: We employed a transcriptional reporter that quantifies activation of the ATF6 arm of the UPR in HEK293T-Rex cells. This reporter contains a fragment of the UPR-inducible BiP promoter, including three ER stress-responsive elements (ERSEs), driving expression of firefly luciferase (ERSE-FLuc; FIG. 1a)^34. We previously employed this reporter for a small-scale screen using the 1280 member compound Library of Pharmacologic Active Compounds (LoPAC) to find small molecules that activate the UPR^8. […] Optimization and miniaturization of this assay to 1536-well format was performed at the Scripps Research Institute Molecule Screening Center (SRIMSC).
# (§1) HEK293T-Rex cells incorporating either the ERSE-FLuc or XBP1s-RLuc reporters were collected by trypsinization and resuspended at a density of 500,000 cells per mL. The assay was started by dispensing 5 μL of cell suspension into each well of white, solid-bottom 1536-well plates using a flying reagent dispenser (FRD) and placed into an online incubator 3 h. Cells were then treated with 34 nL/well of either test compounds to give final concentrations of 6.8 μM, DMSO (Low control, final concentration 0.68%, 0% activation) or […] of Delta-7 thapsigargin (High control, final concentration 500 nM, 100% activation). Plates were incubated for 18 h at 37° C., removed from the incubator and equilibrated to room temperature for 10 min. Luciferase activity was detected by addition of 5 μL of ONE-Glo reagent (Promega) to each well. After a 10 min incubation time, light emission was measured with the ViewLux reader (PerkinElmer). The percent activation of each test compound was calculated as follows: % Activation=100*(Test Compound−Median Low Control)/(Median High Control ˜Median Low Control).
# [2] = test system: XBP1-RLuc reporter (IRE1/XBP1s arm of the UPR); experiment: XBP1-RLuc splicing reporter, 1536-well screen in HEK293T-Rex cells; type: cell-based; settings: % Tg (500 nM) activation, triplicate confirmation screen at 6.8 μM, 18 h
# Description: To evaluate the selectivity of our screening hits for ATF6, we employed an alternative luciferase reporter to measure activation of the IRE1/XBP1s arm of the UPR. This reporter contains Renilla luciferase (RLuc) expressed out of frame downstream of the XBP1 splice site, preventing RLuc translation in the absence of stress (FIG. 2b)^36,37. In response to IRE1 activation, the 26-nt XBP1 intron is removed, producing a frame shift that allows for RLuc translation and activity. Robust dose-dependent activation of the XBP1-RLuc reporter upon addition of the ER stressors Tg and Tm was confirmed in HEK293T-Rex cells stably expressing the XBP1-RLuc reporter, producing a Z′ score of 0.75 for Tg.
# as §1
# [3] = test system: BiP expression in ALMC-2 cells; experiment: BiP qPCR in ALMC-2 cells; type: cell-based, human; settings: 10 μM, 6 h
# Procedure: Cells were treated as described at 37° C., washed with Dulbecco's phosphate-buffered saline (Gibco), and then RNA was extracted using the RNeasy Mini Kit (Qiagen). qPCR reactions were performed on cDNA prepared from 500 ng of total cellular RNA using the QuantiTect Reverse Transcription Kit (Qiagen). The FastStart Universal SYBR Green Master Mix (Roche), cDNA, and appropriate human primers^4 or mouse primers (BiP; […] (SEQ ID NO: 5) and […] (SEQ ID NO: 6) purchased from Integrated DNA Technologies were used for amplifications (45 cycles of 1 min at 95° C., 10 s at 95° C., 30 sec at 60° C.) in an ABI 7900HT Fast Real Time PCR machine. Primer integrity was assessed by a thermal melt to confirm homogeneity and the absence of primer dimers. Transcripts were normalized to the housekeeping gene Rplp2 and all measurements were performed in triplicate. Data were analyzed using the RQ Manager and DataAssist 2.0 softwares (ABI).
# [4] = test system: ERSE-FLuc reporter (ATF6 arm of the UPR); experiment: ERSE-FLuc reporter, 96-well, HEK293T-Rex cells (SAR and S1P inhibition); type: cell-based; settings: for ERSE reporter activity relative to 147: HEK293T-Rex, 10 μM
# Procedure: HEK293T-Rex cells incorporating the ERSE-FLuc reporter and HEK293^DAX cells were plated approximately 20,000 cells/well in flat-bottomed, black 96-well assay plates (Costar, Corning, Inc.) overnight prior to compound administration. Cells were treated with compounds as described for 12-18 h then the plates were equilibrated to room temperature and 50 μL of SteadyLite (PerkinElmer) was added to each well. Luminescence activity was measured in a Safire II microplate reader with a 1000 ms integration time.
# ^FTTTR^WT = experiment: [35S] metabolic labeling, secretion of flag-tagged TTR^WT from HepG2^ATF6 cells; type: cell-based; settings: 15 h pretreatment, 10 μM compound or 1 μM Tg, 4 h chase
# Procedure: (§2) HepG2 cells or HEK293T cells plated on poly-D-lysine coated plates were metabolically labeled in DMEM-Cys/-Met (CellGro) supplemented with glutamine, penicillin/streptomycin, dialyzed fetal bovine serum, and EasyTag EXPRESS^35S Protein Labeling Mix (Perkin Elmer) for 30 min. Cells were washed twice with complete media and incubated in prewarmed DMEM for the indicated times. Media or lysates were harvested at the indicated times. Lysates were prepared in RIPA buffer with fresh protease inhibitor cocktail (Roche). FLAG tagged TTR variants or ALLC were immunopurified using M1 anti-FLAG agarose beads (Sigma-Aldrich) and washed three times with RIPA buffer. The immunoisolates were then eluted by boiling in Laemmli buffer and separated on SDS-PAGE. For total secreted media, 15 uL aliquots from media incubated for 4 hrs on pulsed cells were run on a SDS-PAGE. The gels were then dried, exposed to phosphorimager plates (GE Healthcare), and imaged with a Typhoon imager. Band intensities were quantified by densitometry in ImageQuant. Fraction secreted was calculated using the equation: fraction secreted=[extracellular [^35S]-LC signal at t=t/(extracellular [^35S]-LC signal at t=0+intracellular [^35S]-LC signal at t=0)]. Fraction remaining was calculated using the equation: [(extracellular [^35S]-LC signal at t=t+intracellular [^35S]-LC signal at t=t)/(extracellular [^35S]-LC signal at t=0+ intracellular [^35S]-LC signal at t=0)].
# ^FTTTR^A25T = experiment: [35S] metabolic labeling, secretion of flag-tagged TTR^A25T from HepG2^ATF6 cells; type: cell-based; settings: 15 h pretreatment, 10 μM compound or 1 μM Tg, 4 h chase
# Procedure: as §2
# [5] = test system: endogenous secretory proteome of HepG2^ATF6 cells; experiment: [35S] metabolic labeling, total secreted protein from HepG2^ATF6 cells; type: cell-based; settings: 15 h pretreatment, 10 μM compound or 1 μM Tg, 4 h chase
# Procedure: as §2
# HEK293T-Rex cells = experiment: mRNA-Seq transcriptional profiling and geneset analysis in HEK293T-Rex cells; type: cell-based, human; settings: 6 h, compounds 10 μM, Tg 1 μM
# Procedure: HEK293T-Rex and HEK293^DAX cells in 12-well plates were treated for 6 h with vehicle, 1 μM Tg, 10 μM TMP (in HEK293^DAX), or 10 μM 132, 147 or 263 in biological triplicate at 37° C. Cells were harvested, and RNA was extracted using the RNeasy Mini Kit (Qiagen). Total RNA was quantified using NanoDrop (ND-1000). Samples were run on the Illuina HiSeq system.
# Single end, 100 bp-long reads from RNA-Seq experiments were aligned to the GRCh37.p13 human genome reference assembly using SeqMan NGen 11.2.1 (DNAStar, Inc.). The assembly data were then imported into ArrayStar with QSeq (DNAStar, Inc.) to quantify the gene expression levels. The sequence counts were normalized to reads per kilobase per million (RPKM) after filtering out non-mRNA sequence features. The statistical significance of the difference between the expression levels of a gene under different conditions was assessed using a Student's t-test with the Benjamini-Hochberg multiple testing correction.
# ATF6- and XBP1s-selective target genes were identified from transcriptional profiles of HEK293D^X cells following stress-independent activation of TMP-dependent DHFR-ATF6 and/or tetracycline inducible XBP1s, as previously described^4. PERK-selective target genes were identified from^8. Only ATF6-, XBP1s- or PERK-selective genes induced >1.5 fold in Tg-treated samples were used in this analysis. The log transformed fold-increase of these target genes in HEK293T-Rex cells treated with the respective ER proteostasis regulators were then normalized to the log transformed fold increase of these genes induced by Tg treatment. The plots shown in FIG. 5b-e were prepared as box and whisker plots using Kaleidograph. Differential activation of the ATF6, XBP1s, and PERK genesets was assessed by one-way ANOVA and significance of pairwise comparison confirmed by unpaired t-test. An analogous strategy was employed to prepare the heat map using transcriptional data from the MGE analysis.
smiles,measurement,setting,value
CCCCNNC(=O)c1ccc(Br)cc1 [Compound 5],% ERSE-FLuc activation,[1],60.9 ± 6.0%
same,% XBP1-RLuc activation,[2],9.1 ± 0.7%
CCCc1cc(C(=O)Nc2cc(C)ccc2O)no1 [Compound 145],expression of the ATF6 target gene BiP in ALMC-2 cells,[3],induced
same,% ERSE-FLuc activation,[1],83.4 ± 6.3%
same,% XBP1-RLuc activation,[2],24.5 ± 4.7%
O=C1N/C(=C\c2ccc(O)cc2)C(=O)N1c1cccc(Cl)c1 [Compound 238],% ERSE-FLuc activation,[1],68.2 ± 5.7%
Cc1cc(C)c(OCC(=O)N/N=C/c2ccc(Cl)c(O)c2)c(Br)c1 [Compound 258],% ERSE-FLuc activation,[1],28.6 ± 6.1%
same,% XBP1-RLuc activation,[2],32.6 ± 1.0%
COc1ccc(CCC(=O)Nc2cc(C)ccc2O)cc1 [RP14],ERSE reporter activity relative to 147,[4],slightly decrease or do not change
COc1ccccc1CCC(=O)Nc1cc(C)ccc1O [RP23],ERSE reporter activity relative to 147,[4],slightly decrease or do not change
Cc1ccc(O)c(NC(=O)CCc2ccccc2F)c1 [RP24],ERSE reporter activity relative to 147,[4],increase
Cc1ccc(O)c(NC(=O)CCc2ccccc2C)c1 [RP25],ERSE reporter activity relative to 147,[4],slightly decrease or do not change
Cc1ccc(O)c(NC(=O)CCc2ccccc2Cl)c1 [RP26],ERSE reporter activity relative to 147,[4],increase
Cc1ccc(O)c(NC(=O)CCc2c(Cl)cccc2Cl)c1 [RP27],ERSE reporter activity relative to 147,[4],decreases activity
"C/C=C(/C)C(=O)O[C@H]1C(C)=C2[C@H]([C@@H]1OC(=O)CCCCCCC)[C@@](C)(OC(C)=O)C[C@H](OC(=O)CCC)[C@@]1(O)[C@H]2OC(=O)[C@@]1(C)O [Tg, thapsigargin, reference compound]",^FTTTR^WT secretion (in words),^FTTTR^WT,reduced
same,^FTTTR^A25T secretion (in words),^FTTTR^A25T,reduced
same,accumulation of [35S]-labeled protein in media (total secreted proteome),[5],significantly impaired
same,ERSE-FLuc activation on co-addition of the S1P inhibitor PF-429242,"[4]; PF-429242 10 μM, 18 h, regulators 10 μM, Tg 500 nM",impeded
same,BiP mRNA-Seq fold change (relative to Vh),HEK293T-Rex cells; ATF6-selective gene,11.6 fold
same,GRP94 mRNA-Seq fold change (relative to Vh),HEK293T-Rex cells; ATF6-selective gene,4.2 fold
same,SEL1L mRNA-Seq fold change (relative to Vh),HEK293T-Rex cells; ATF6-selective gene,7.6 fold
same,DNAJB1 mRNA-Seq fold change (relative to Vh),HEK293T-Rex cells; HSF1 target gene,0.5 fold
same,HSPA1A mRNA-Seq fold change (relative to Vh),HEK293T-Rex cells; HSF1 target gene,0.3 fold
same,HSPA8 mRNA-Seq fold change (relative to Vh),HEK293T-Rex cells; HSF1 target gene,0.3 fold
same,ASNS mRNA-Seq fold change (relative to Vh),HEK293T-Rex cells; PERK target gene,4.2 fold
same,DDIT3 (CHOP) mRNA-Seq fold change (relative to Vh),HEK293T-Rex cells; PERK target gene,13.2 fold
same,TrIB3 mRNA-Seq fold change (relative to Vh),HEK293T-Rex cells; PERK target gene,8.2 fold
same,ERdj3 mRNA-Seq fold change (relative to Vh),HEK293T-Rex cells; XBP1s- or ATF6-target gene,4.0 fold
same,HYOU1 mRNA-Seq fold change (relative to Vh),HEK293T-Rex cells; XBP1s- or ATF6-target gene,6.1 fold
same,p58IPK mRNA-Seq fold change (relative to Vh),HEK293T-Rex cells; XBP1s- or ATF6-target gene,3.9 fold
same,DNAJC10 mRNA-Seq fold change (relative to Vh),HEK293T-Rex cells; XBP1s-selective gene,2.1 fold
same,HSPA13 mRNA-Seq fold change (relative to Vh),HEK293T-Rex cells; XBP1s-selective gene,4.2 fold
same,SEC24D mRNA-Seq fold change (relative to Vh),HEK293T-Rex cells; XBP1s-selective gene,6.6 fold

# Reference: patent publication US11135186B2, “Regulators of the endoplasmic reticulum proteostasis network” (The Scripps Research Institute, priority 2015, dated 2021)
